# Laboratory results published in patent US8952024B2, “Herbicidal pyrimidone derivatives” (E I du Pont de Nemours and Company, priority 2009, dated 2015).
# How the values were obtained:
# Format in all cases: in vivo
# [1] = test system: goosegrass (Eleusine indica); assay: Test B pre-/postemergence plant response
# Method in brief: (§1)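 Ratings reflect visual comparison with untreated controls 13 to 15 days after application, from 0 (no effect) to 100 (complete control). Application was preemergence to seeded loam/sand soil or postemergence to 1- to 4-leaf plants, with compound in a non-phytotoxic, surfactant-containing solvent.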
# [2] = test system: pigweed (Amaranthus retroflexus); assay: Test B pre-/postemergence plant response
# Method in brief: as §1
# [3] = test system: wheat (Triticum aestivum); assay: Test B pre-/postemergence plant response
# Method in brief: as §1
# [4] = test system: giant foxtail (Setaria faberii); assay: Test B pre-/postemergence plant response
# Method in brief: as §1
# [5] = test system: cocklebur (Xanthium strumarium); assay: Test B pre-/postemergence plant response
# Method in brief: as §1
# [6] = test system: downy bromegrass (Bromus tectorum); assay: Test B pre-/postemergence plant response
# Method in brief: as §1
# [7] = test system: green foxtail (Setaria viridis); assay: Test B pre-/postemergence plant response
# Method in brief: as §1
# [8] = test system: morningglory (Ipomoea coccinea); assay: Test B pre-/postemergence plant response
# Method in brief: as §1
# kochia (Kochia scoparia) = assay: Test B pre-/postemergence plant response
# Method in brief: as §1
# [9] = test system: velvetleaf (Abutilon theophrasti); assay: Test A pre-/postemergence plant response
# Method in brief: (§2)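 Approximately ten days after concurrent pre- and postemergence spraying in a greenhouse, plants were compared with untreated controls and rated visually for injury, 0 = no effect to 100 = complete control. Preemergence spray was directed onto loam/sand soil; postemergence targeted 1–2 leaf seedlings.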
# [10] = test system: wheat (Triticum aestivum); assay: Test A pre-/postemergence plant response
# Method in brief: as §2
# [11] = test system: large crabgrass (Digitaria sanguinalis); assay: Test A pre-/postemergence plant response
# Method in brief: as §2
# [12] = test system: morningglory (Ipomoea spp.); assay: Test A pre-/postemergence plant response
# Method in brief: as §2
# [13] = 31 g ai/ha, postemergence, scale 0 to 100, 0 is no effect, 100 is complete control
# [14] = 250 g ai/ha, Preemergence, 0 to 100 scale
# [15] = Postemergence, 62 g ai/ha, scale 0 (no effect) to 100 (complete control), 13 to 15 days
# [16] = Postemergence, 125 g ai/ha, visual rating after 13 to 15 days, scale 0 (no effect) to 100 (complete control)
# [17] = Postemergence, 250 g ai/ha, scale 0 to 100 (0 no effect, 100 complete control)
# [18] = Preemergence, 31 g ai/ha, scale 0 to 100 (0 no effect, 100 complete control)
# [19] = Preemergence, 62 g ai/ha, scale 0 to 100, 0 no effect, 100 complete control
# [20] = Preemergence, 125 g ai/ha, scale 0 to 100, 0 no effect, 100 complete control
# [21] = Postemergence, 125 g ai/ha, visual injury, 0 to 100 scale (0 no effect, 100 complete control), approx. ten days
# [22] = Postemergence, 500 g ai/ha, 0 to 100 scale, 0 = no effect, 100 = complete control, approx. ten days
# [23] = Preemergence, 125 g ai/ha, 0 to 100 scale, 0 = no effect, 100 = complete control
# [24] = Preemergence, 500 g ai/ha, visual injury, 0 to 100 scale (0 no effect, 100 complete control), approx. ten days
structure (smiles),measurement,setting,value
CCCCc1ncc(C(=O)C2=C(O)CCCC2=O)c(=O)n1-c1ccccc1C [Compound 62],"Plant response rating, Goosegrass",[1]; [13],65
same,"Plant response rating, Goosegrass",[1]; [14],98
same,"Plant response rating, Goosegrass",[1]; [15],65
same,"Plant response rating, Goosegrass",[1]; [16],65
same,"Plant response rating, Goosegrass",[1]; [17],75
same,"Plant response rating, Goosegrass",[1]; [18],15
same,"Plant response rating, Goosegrass",[1]; [19],95
same,"Plant response rating, Goosegrass",[1]; [20],98
same,"Plant response rating, Pigweed",[2]; [13],98
same,"Plant response rating, Pigweed",[2]; [15],98
same,"Plant response rating, Pigweed",[2]; [16],100
same,"Plant response rating, Pigweed",[2]; [17],100
same,"Plant response rating, Pigweed",[2]; [18],45
same,"Plant response rating, Pigweed",[2]; [19],98
same,"Plant response rating, Pigweed",[2]; [20],100
same,"Plant response rating, Wheat",[3]; [13],0
same,"Plant response rating, Wheat",[3]; [15],0
same,"Plant response rating, Wheat",[3]; [16],5
same,"Plant response rating, Wheat",[3]; [17],30
same,"Plant response rating, Wheat",[3]; [18],0
same,"Plant response rating, Wheat",[3]; [19],0
same,"Plant response rating, Wheat",[3]; [20],0
same,"Plant response rating, Foxtail, Giant",[4]; [13],55
same,"Plant response rating, Foxtail, Giant",[4]; [14],20
same,"Plant response rating, Foxtail, Giant",[4]; [15],65
same,"Plant response rating, Foxtail, Giant",[4]; [16],75
same,"Plant response rating, Foxtail, Giant",[4]; [17],80
same,"Plant response rating, Foxtail, Giant",[4]; [18],0
same,"Plant response rating, Foxtail, Giant",[4]; [19],0
same,"Plant response rating, Foxtail, Giant",[4]; [20],20
same,"Plant response rating, Cocklebur",[5]; [13],25
same,"Plant response rating, Cocklebur",[5]; [14],10
same,"Plant response rating, Cocklebur",[5]; [15],55
same,"Plant response rating, Cocklebur",[5]; [16],55
same,"Plant response rating, Cocklebur",[5]; [17],75
same,"Plant response rating, Cocklebur",[5]; [18],0
same,"Plant response rating, Cocklebur",[5]; [19],0
same,"Plant response rating, Cocklebur",[5]; [20],0
same,"Plant response rating, Bromegrass, Downy",[6]; [13],30
same,"Plant response rating, Bromegrass, Downy",[6]; [14],0
same,"Plant response rating, Bromegrass, Downy",[6]; [15],45
same,"Plant response rating, Bromegrass, Downy",[6]; [16],50
same,"Plant response rating, Bromegrass, Downy",[6]; [17],50
same,"Plant response rating, Bromegrass, Downy",[6]; [18],0
same,"Plant response rating, Bromegrass, Downy",[6]; [19],0
same,"Plant response rating, Bromegrass, Downy",[6]; [20],0
same,"Plant response rating, Foxtail, Green",[7]; [13],40
same,"Plant response rating, Foxtail, Green",[7]; [14],10
same,"Plant response rating, Foxtail, Green",[7]; [15],70
same,"Plant response rating, Foxtail, Green",[7]; [16],80
same,"Plant response rating, Foxtail, Green",[7]; [17],85
same,"Plant response rating, Foxtail, Green",[7]; [18],0
same,"Plant response rating, Foxtail, Green",[7]; [19],0
same,"Plant response rating, Foxtail, Green",[7]; [20],10
same,"Plant response rating, Morningglory",[8]; [15],15
same,"Plant response rating, Morningglory",[8]; [16],75
same,"Plant response rating, Morningglory",[8]; [17],75
same,"Plant response rating, Morningglory",[8]; [18],0
same,"Plant response rating, Morningglory",[8]; [19],0
same,"Plant response rating, Morningglory",[8]; [20],0
same,"Plant response rating, Kochia",kochia (Kochia scoparia); [13],10
same,"Plant response rating, Kochia",kochia (Kochia scoparia); [14],100
same,"Plant response rating, Kochia",kochia (Kochia scoparia); [15],25
same,"Plant response rating, Kochia",kochia (Kochia scoparia); [16],60
same,"Plant response rating, Kochia",kochia (Kochia scoparia); [17],80
same,"Plant response rating, Kochia",kochia (Kochia scoparia); [18],98
same,"Plant response rating, Kochia",kochia (Kochia scoparia); [19],100
same,"Plant response rating, Kochia",kochia (Kochia scoparia); [20],100
same,Velvetleaf plant response rating,[9]; [21],100
same,"Plant response rating, Velvetleaf",[9]; [22],100
same,"Plant response rating, Velvetleaf",[9]; [23],70
same,"Plant response rating, Velvetleaf",[9]; [24],90
same,Wheat plant response rating,[10]; [21],0
same,"Plant response rating, Wheat",[10]; [22],20
same,"Plant response rating, Wheat",[10]; [23],0
same,"Plant response rating, Wheat",[10]; [24],10
same,"Crabgrass, Large plant response rating",[11]; [21],70
same,"Plant response rating, Crabgrass, Large",[11]; [22],90
same,"Plant response rating, Crabgrass, Large",[11]; [23],60
same,"Plant response rating, Crabgrass, Large",[11]; [24],90
same,Morningglory plant response rating,[12]; [21],100
same,"Plant response rating, Morningglory",[12]; [22],100
same,"Plant response rating, Morningglory",[12]; [23],90
same,"Plant response rating, Morningglory",[12]; [24],100
O=C1CCCC(O)=C1C(=O)c1cnc(-c2cccs2)n(-c2ccccc2)c1=O [Compound 66],"Plant response rating, Goosegrass",[1]; [13],65
same,"Plant response rating, Goosegrass",[1]; [14],98
same,"Plant response rating, Goosegrass",[1]; [15],65
same,"Plant response rating, Goosegrass",[1]; [16],70
same,"Plant response rating, Goosegrass",[1]; [17],95
same,"Plant response rating, Goosegrass",[1]; [18],35
same,"Plant response rating, Goosegrass",[1]; [19],75
same,"Plant response rating, Goosegrass",[1]; [20],90
same,"Plant response rating, Pigweed",[2]; [13],98
same,"Plant response rating, Pigweed",[2]; [15],98
same,"Plant response rating, Pigweed",[2]; [16],100
same,"Plant response rating, Pigweed",[2]; [17],100
same,"Plant response rating, Pigweed",[2]; [18],98
same,"Plant response rating, Pigweed",[2]; [19],98
same,"Plant response rating, Pigweed",[2]; [20],98
same,"Plant response rating, Wheat",[3]; [13],0
same,"Plant response rating, Wheat",[3]; [16],0
same,"Plant response rating, Wheat",[3]; [17],0
same,"Plant response rating, Wheat",[3]; [18],0
same,"Plant response rating, Wheat",[3]; [19],0
same,"Plant response rating, Wheat",[3]; [20],0
same,"Plant response rating, Foxtail, Giant",[4]; [13],65
same,"Plant response rating, Foxtail, Giant",[4]; [14],80
same,"Plant response rating, Foxtail, Giant",[4]; [15],75
same,"Plant response rating, Foxtail, Giant",[4]; [16],80
same,"Plant response rating, Foxtail, Giant",[4]; [17],95
same,"Plant response rating, Foxtail, Giant",[4]; [18],15
same,"Plant response rating, Foxtail, Giant",[4]; [19],20
same,"Plant response rating, Foxtail, Giant",[4]; [20],75
same,"Plant response rating, Cocklebur",[5]; [13],10
same,"Plant response rating, Cocklebur",[5]; [14],0
same,"Plant response rating, Cocklebur",[5]; [15],10
same,"Plant response rating, Cocklebur",[5]; [16],25
same,"Plant response rating, Cocklebur",[5]; [17],45
same,"Plant response rating, Cocklebur",[5]; [18],0
same,"Plant response rating, Cocklebur",[5]; [19],0
same,"Plant response rating, Cocklebur",[5]; [20],0
same,"Plant response rating, Bromegrass, Downy",[6]; [13],5
same,"Plant response rating, Bromegrass, Downy",[6]; [14],0
same,"Plant response rating, Bromegrass, Downy",[6]; [15],10
same,"Plant response rating, Bromegrass, Downy",[6]; [16],20
same,"Plant response rating, Bromegrass, Downy",[6]; [17],25
same,"Plant response rating, Bromegrass, Downy",[6]; [18],0
same,"Plant response rating, Bromegrass, Downy",[6]; [19],0
same,"Plant response rating, Bromegrass, Downy",[6]; [20],0
same,"Plant response rating, Foxtail, Green",[7]; [13],80
same,"Plant response rating, Foxtail, Green",[7]; [14],75
same,"Plant response rating, Foxtail, Green",[7]; [15],85
same,"Plant response rating, Foxtail, Green",[7]; [16],90
same,"Plant response rating, Foxtail, Green",[7]; [17],98
same,"Plant response rating, Foxtail, Green",[7]; [18],0
same,"Plant response rating, Foxtail, Green",[7]; [19],5
same,"Plant response rating, Foxtail, Green",[7]; [20],30
same,"Plant response rating, Morningglory",[8]; [13],98
same,"Plant response rating, Morningglory",[8]; [15],100
same,"Plant response rating, Morningglory",[8]; [16],100
same,"Plant response rating, Morningglory",[8]; [17],100
same,"Plant response rating, Morningglory",[8]; [18],0
same,"Plant response rating, Morningglory",[8]; [19],20
same,"Plant response rating, Morningglory",[8]; [20],25
same,"Plant response rating, Kochia",kochia (Kochia scoparia); [13],80
same,"Plant response rating, Kochia",kochia (Kochia scoparia); [14],85
same,"Plant response rating, Kochia",kochia (Kochia scoparia); [15],85
same,"Plant response rating, Kochia",kochia (Kochia scoparia); [16],90
same,"Plant response rating, Kochia",kochia (Kochia scoparia); [17],98
same,"Plant response rating, Kochia",kochia (Kochia scoparia); [18],80
same,"Plant response rating, Kochia",kochia (Kochia scoparia); [19],80
same,"Plant response rating, Kochia",kochia (Kochia scoparia); [20],85
same,Velvetleaf plant response rating,[9]; [21],100
same,"Plant response rating, Velvetleaf",[9]; [22],100
same,"Plant response rating, Velvetleaf",[9]; [23],70
same,"Plant response rating, Velvetleaf",[9]; [24],100
same,Wheat plant response rating,[10]; [21],0
same,"Plant response rating, Wheat",[10]; [22],0
same,"Plant response rating, Wheat",[10]; [23],0
same,"Plant response rating, Wheat",[10]; [24],0
same,"Crabgrass, Large plant response rating",[11]; [21],70
same,"Plant response rating, Crabgrass, Large",[11]; [22],90
same,"Plant response rating, Crabgrass, Large",[11]; [23],90
same,"Plant response rating, Crabgrass, Large",[11]; [24],100
same,Morningglory plant response rating,[12]; [21],90
same,"Plant response rating, Morningglory",[12]; [22],90
same,"Plant response rating, Morningglory",[12]; [23],0
same,"Plant response rating, Morningglory",[12]; [24],30
